From article PMC3966047, “Analysis of the minimal specificity of caspase-2 and identification of Ac-VDTTD-AFC as a caspase-2-selective peptide substrate” (Bioscience Reports, 2014)
Entries after “also recorded” stand apart in the source; their conditions may differ. Read-outs that look alike come from different tables or passages of the source. The star is where a group is joined. AFC = O=c1cc(C(F)(F)F)c2ccc(N*)cc2o1; pNA = O=[N+]([O-])c1ccc(N*)cc1

Experiments:
caspase-2 [1] = conditions: aldehyde inhibitors; cited from earlier work
From the text: (§1) Research into caspase-2 biology has been hampered by a dearth of selective reagents capable of distinguishing between caspases-2 and -3. Peptides and inhibitors based on the sequence VDVAD are marketed as ‘caspase-2-specific’ but also react strongly with caspase-3.

caspase-3 [2] = molecular target: T1, caspase-3 (Homo sapiens, UniProt P42574); conditions: aldehyde inhibitors; cited from earlier work
T1 construct: made in house; host or cells: E. coli BL21(DE3)pLysS
T1 sequence (P42574 29-175 limits assumed): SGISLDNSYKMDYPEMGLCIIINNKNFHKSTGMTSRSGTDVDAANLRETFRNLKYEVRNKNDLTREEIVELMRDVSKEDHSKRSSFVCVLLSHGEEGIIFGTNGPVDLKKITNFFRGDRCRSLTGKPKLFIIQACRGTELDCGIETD
T1 sequence (P42574 176-277 limits assumed): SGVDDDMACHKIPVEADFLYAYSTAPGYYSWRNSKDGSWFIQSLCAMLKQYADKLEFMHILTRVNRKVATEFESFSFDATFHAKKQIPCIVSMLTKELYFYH
From the text: as §1

[3] = test system: auto-activating caspase-2 in HEK-293T cell lysate; experiment: Fluorogenic peptide cleavage by lysates of HEK-293T cells expressing auto-activating caspase-2; type: biochemical, human embryonic kidney cells; conditions: for caspase-2 versus caspase-3 selectivity in cell lysates (in words): HEK-293T lysates with auto-activating caspase-2 or -3, 0.1 mM substrate
Procedure: (§2) Caspases were pre-activated for 30 min at 37°C in their preferred buffers, then diluted and mixed with fluorogenic peptide substrates. Fluorescence (excitation 410 nm, emission 500 nm) was measured every 10–60 s for up to 1 h using a FluoStar Galaxy (BMG Labtech). The maximal slope of each curve was calculated. A standard curve, using free AFC (Sigma), was used to convert fluorescence emissions into concentration of AFC produced during the cleavage reactions. Prism 5.0 software was used to determine kcat and KM from three to four independent experiments, as previously described. Ac-DEVD-AFC and Ac-VDVAD-AFC were purchased from Enzo Life Sciences. The custom substrates Ac-VDTTD-AFC and Ac-VDVPD-AFC were synthesized by 21st Century Biochemicals. 150 nM Bid or 100 nM Runx1 proteins were incubated with specified concentrations of caspases in their preferred buffers for 1 h (Runx1) or 0.5 h (Bid variants) at 37°C, then subjected to SDS–PAGE and immunoblotting with anti-Bid (#AF860 R&D Systems) or anti-His6 antibodies (#A00186 GenScript). Secondary antibodies were anti-mouse-HRP (#A9044, Sigma) or anti-goat-HRP (#6300-05, Southern Biotech). The SuperSignal West Dura Substrate (Thermo Scientific) was used to detect signals and quantitation of sub-saturated exposures was performed using a Syngene G:Box and Image Lab 3.0 software (BioRad). Linear regression was used to determine the caspase concentration, which cleaved half of each protein.
(§3) HEK-293T cells [human embryonic kidney cells expressing the large T-antigen of SV40 (simian virus 40)] were cultured, transfected, harvested and lysed as described except that protease inhibitors were not used. Each lysate was mixed with the appropriate fluorogenic substrate (0.1 mM) in caspase buffer, and fluorescence was monitored as outlined above.

caspase-2 [4] = conditions: cited from earlier work
From the text: It seems likely that identification of caspase-2 substrates may provide valuable clues to its biological role. […] Apoptotic signalling by caspase-2 has been proposed to result from its processing of the pro-apoptotic Bcl-2 relative Bid. […] Runx1 plays a critical role in haematopoiesis, and Runx1 translocations or other mutations occur frequently in myeloid leukaemias, and less commonly in other cancer types.

[5] = test system: auto-activating caspase-3 in HEK-293T cell lysate; experiment: Fluorogenic peptide cleavage by lysates of HEK-293T cells expressing auto-activating caspase-3; type: biochemical, human embryonic kidney cells; conditions: for cleavage by lysates of cells expressing caspase-3 (in words): HEK-293T lysate, auto-activating caspase-3, 0.1 mM substrate, rate of fluorescence increase, three independent transfections
Procedure: as §2, §3

caspase-2 [6] = experiment: Fluorogenic peptide cleavage by purified caspase-2 (AFC release); type: biochemical; conditions: for selectivity for caspase-2 relative to caspase-3 (in words): purified caspases-2 and -3
Procedure: (§4) Caspases-2, -3 and -8 were purified using NiNTA resin (Qiagen) from BL21(DE3)pLysS bacteria (Novagen/Merck) transformed with pET23a–caspase-2^Δ1−149 [44], pET23a–caspase-3 [54] or pET15b–caspase-8^Δ1−216 plasmids. Induction conditions were: caspase-2, 0.4 mM IPTG (isopropyl β-D-thiogalactoside), 2 h 37°C; caspase-3, 0.2 mM IPTG, 3 h 30°C; caspase-8, 1 mM IPTG, 4 h 25°C. Caspases were active site-titrated using zVAD-fmk (Merck). ArcticExpress DE3 bacteria (Agilent Technologies) were transformed with the pET23a Bid expression plasmids described above, induced for 48 h at 10°C using 1 mM IPTG, then the His6-tagged Bid proteins were purified using NiNTA resin (Qiagen). Recombinant proteins were quantitated using the Bicinchoninic acid protein assay kit (Sigma). Runx1 proteins were synthesized using the TNT T7 quick coupled transcription/translation system (Promega) with non-radioactive methionine, using intact Runx1–pET23a plasmids as templates. The concentration of Runx1 proteins was determined by quantitative anti-His6 immunoblotting, using purified AcP35–His6 [56] as a standard.
as §2

caspase-3 [7] = molecular target: T1, caspase-3; experiment: Fluorogenic peptide cleavage by purified caspase-3 (AFC release); type: biochemical
Procedure: as §4
as §2, with “150 nM Bid or 100 nM Runx1 proteins were incubated with specified concentrations of caspases in their preferred buffers for 1 h (Runx1) or 0.5 h (Bid variants) at 37°C, then subjected to SDS–PAGE and immunoblotting with anti-Bid (#AF860 R&D Systems) or anti-His6 antibodies (#A00186 GenScript). Secondary antibodies were anti-mouse-HRP (#A9044, Sigma) or anti-goat-HRP (#6300-05, Southern Biotech).” left out, “Linear regression was used to determine the caspase concentration, which cleaved half of each protein.” left out

caspase-2 [8] = experiment: Runx1 cleavage by caspase-2 (anti-His6 immunoblot); type: biochemical; conditions: 100 nM in vitro-translated Runx1, 1 h, 37°C
Procedure: as §4, with “Runx1 proteins were synthesized using the TNT T7 quick coupled transcription/translation system (Promega) with non-radioactive methionine, using intact Runx1–pET23a plasmids as templates.” left out
(§5) Caspases were pre-activated for 30 min at 37°C in their preferred buffers, then diluted and mixed with fluorogenic peptide substrates. Fluorescence (excitation 410 nm, emission 500 nm) was measured every 10–60 s for up to 1 h using a FluoStar Galaxy (BMG Labtech). The maximal slope of each curve was calculated. A standard curve, using free AFC (Sigma), was used to convert fluorescence emissions into concentration of AFC produced during the cleavage reactions. […]

caspase-3 [9] = molecular target: T1, caspase-3; experiment: Runx1 cleavage by caspase-3 (anti-His6 immunoblot); type: biochemical; conditions: 100 nM in vitro-translated Runx1, 1 h, 37°C
Procedure: as §4, with “Runx1 proteins were synthesized using the TNT T7 quick coupled transcription/translation system (Promega) with non-radioactive methionine, using intact Runx1–pET23a plasmids as templates.” left out
as §5

caspase-8 [10] = experiment: Runx1 cleavage by caspase-8 (anti-His6 immunoblot); type: biochemical; conditions: 100 nM in vitro-translated Runx1, 1 h, 37°C
Procedure: as §4, with “Runx1 proteins were synthesized using the TNT T7 quick coupled transcription/translation system (Promega) with non-radioactive methionine, using intact Runx1–pET23a plasmids as templates.” left out
as §5

caspase-2 [11] = conditions: cited from earlier work; remark: listed apart in the source
From the text: (§6) Some of the confusion regarding the function of caspase-2 may stem from researchers’ use of non-specific tools for monitoring its activity and inhibition. […] Subsequent studies have confirmed the lack of specificity associated VDVAD-based tools, yet many researchers continue to employ substrates and inhibitors derived from this peptide sequence as c ...

caspase-3 [12] = molecular target: T1, caspase-3; conditions: compared with caspase-2; cited from earlier work
From the text: as §6

caspase-2 [13] = experiment: Bid protein cleavage by caspase-2 (anti-Bid immunoblot); type: biochemical; conditions: 150 nM Bid protein, 0.5 h, 37°C, preferred buffer, from caspase concentration cleaving half of the substrate
Procedure: as §4, with “Runx1 proteins were synthesized using the TNT T7 quick coupled transcription/translation system (Promega) with non-radioactive methionine, using intact Runx1–pET23a plasmids as templates.” left out
as §5

caspase-3 [14] = molecular target: T1, caspase-3; experiment: Bid protein cleavage by caspase-3 (anti-Bid immunoblot); type: biochemical; conditions: 150 nM Bid protein, 0.5 h, 37°C
Procedure: as §4, with “Runx1 proteins were synthesized using the TNT T7 quick coupled transcription/translation system (Promega) with non-radioactive methionine, using intact Runx1–pET23a plasmids as templates.” left out
as §5

caspase-8 [15] = experiment: Bid protein cleavage by caspase-8 (anti-Bid immunoblot); type: biochemical; conditions: 150 nM Bid protein, 0.5 h, 37°C
Procedure: as §4, with “Runx1 proteins were synthesized using the TNT T7 quick coupled transcription/translation system (Promega) with non-radioactive methionine, using intact Runx1–pET23a plasmids as templates.” left out
as §5

caspase-8 [16] = conditions: subsequent data; cited from earlier work
From the text: It seems likely that identification of caspase-2 substrates may provide valuable clues to its biological role. […] Apoptotic signalling by caspase-2 has been proposed to result from its processing of the pro-apoptotic Bcl-2 relative Bid.

[17] = preferred buffer, anti-Bid immunoblot, from caspase concentration cleaving half of the substrate

Ac-VDVPD-aldehyde
inhibition of caspase-2 compared with caspase-3 (in words) (caspase-2 [1]): inhibited caspases-2 and -3 with similar potencies
inhibition of caspase-3 compared with caspase-2 (in words) (caspase-3 [2]): inhibited caspases-2 and -3 with similar potencies

Ac-VDVAD-aldehyde
inhibition of caspase-2 compared with caspase-3 (in words) (caspase-2 [1]): inhibited caspases-2 and -3 with similar potencies
inhibition of caspase-3 compared with caspase-2 (in words) (caspase-3 [2]): inhibited caspases-2 and -3 with similar potencies

Ac-VDVAD-{AFC} [classical caspase-2 substrate, purchased from Enzo Life Sciences, reference compound]
caspase-2 versus caspase-3 selectivity in cell lysates (in words) [3]: cleaved only slightly better by extracts from cells expressing caspase-2 than caspase-3

Cux1: transcription factor Cux1
cleavage by caspase-2 (in words) (caspase-2 [4]): efficiently cleaved

EIF4B: translation initiation factor EIF4B
cleavage by caspase-2 versus other caspases (in words) (caspase-2 [4]; degradomics, lysates): more efficiently cleaved by caspase-2

Ac-DEVD-AFC [reference compound]
cleavage by lysates of cells expressing caspase-3 (in words) [5]: extracts from cells expressing active caspase-3 cleaved Ac-DEVD-AFC most efficiently

Ac-VDTTD-{AFC} [custom fluorogenic substrate synthesized by 21st Century Biochemicals]
cleavage by caspase-2 (in words) (caspase-2 [6]; purified caspase-2): efficiently cleaved by purified caspase-2
cleavage efficiency relative to Ac-VDVAD-AFC (caspase-2) (caspase-2 [6]; purified caspase-2, fold versus Ac-VDVAD-AFC): four
selectivity for caspase-2 relative to caspase-3 (in words) (caspase-2 [6]): better selectivity for caspase-2 relative to caspase-3 than reagents that are currently available; also recorded: exhibits enhanced caspase-2 sensitivity and specificity, relative to Ac-VDVAD-AFC
cleavage by caspase-3 (in words) (caspase-3 [7]): only cleaved it slightly more efficiently than Ac-VDVAD-AFC
cleavage efficiency relative to Ac-VDVAD-AFC (caspase-3) (caspase-3 [7]; fold versus Ac-VDVAD-AFC): 1.7 times
cleavage by lysates of cells expressing caspase-2 (in words) ([3]; HEK-293T lysate, auto-activating caspase-2, 0.1 mM substrate, rate of fluorescence increase, three independent transfections): efficiently cleaved by purified caspase-2 and auto-activating caspase-2 in mammalian cells; also recorded: lysates from cells expressing active caspase-2 cleaved Ac-VDTTD-AFC more efficiently than the other peptides
caspase-2 versus caspase-3 selectivity in cell lysates (in words) [3]: significantly more selective for caspase-2 than the commonly used Ac-VDVAD-AFC peptide; also recorded: does not offer this degree of specificity
VDTTDase activity relative to DEVDase activity ([3]; lysates from cells expressing caspase-2, background activity in vector transfectant lysates subtracted, 0.1 mM substrate): ~14 times
cleavage by lysates of cells expressing caspase-3 (in words) [5]: proteolysed by lysates containing caspase-3, but at a slower rate than by lysates from cells expressing caspase-2
DEVDase activity relative to VDTTDase activity ([5]; cells expressing active caspase-3, Ac-DEVD-AFC versus Ac-VDTTD-AFC, 0.1 mM substrate): 3.3 times

Ac-VDVPD-{AFC} [custom fluorogenic substrate based on the Runx1 cleavage site]
cleavage by caspase-2 (in words) (caspase-2 [6]; purified caspase-2): enhanced sensitivity to caspase-2 relative to Ac-VDVAD-AFC; also recorded: cleaved by caspase-2 slightly better than Ac-VDVAD
selectivity for caspase-2 relative to caspase-3 (in words) (caspase-2 [6]): less specific than Ac-VDVAD-AFC for caspase-2 relative to caspase-3; also recorded: lacked the sought-after selectivity for caspase-2 over caspase-3
cleavage by caspase-3 (in words) (caspase-3 [7]): proteolysed this substrate more efficiently than Ac-VDVAD-AFC
caspase-2 versus caspase-3 selectivity in cell lysates (in words) [3]: cleaved at similar rates in cell lysates containing active caspases-2 or -3

Runx1^DVPG: P1 mutant of Runx1
Runx1 cleavage by caspase-2 (in words) (caspase-2 [8]): yielded a larger product
Runx1 cleavage by caspase-3 (in words) (caspase-3 [9]): yielded a larger product
Runx1 cleavage by caspase-8 (in words) (caspase-8 [10]): yielded a larger product

Ac-VDVAD-pNA
cleavage by caspase-2 (in words) (caspase-2 [11]): could efficiently cleave peptides containing the sequence VDVAD
cleavage by caspase-3 (in words) (caspase-3 [12]): caspase-3 could cleave these peptides with similar kinetics

B1: wild-type Bid: Bid protein bearing the native LQTD cleavage site (protein, UniProt P55957 1-195, looked up)
BH3-interacting domain death …: MDCEVNNGSSLRDECITNLLVFGFLQSCSDNSFRRELDALGHELPVLAPQWEGYDELQTDGNRSSHSRLGRIEADSESQEDIIRNIARHLAQVGDSMDRSIPPGLVNGLALQLRNTSRSEEDRNRDLATALEQLLQAYPRDMEKEKTMLVLALLLAKKVASHTPSLLRDVFHTTVNFINQNLRTYVRSLARNGMD
second-order rate constant (estimate of kcat/KM), caspase-2 (caspase-2 [13]): 3200 M⁻¹ s⁻¹
Bid cleavage by caspase-3 (in words) (caspase-3 [14]; immunoblot): barely sensitive to proteolysis by even high concentrations of caspase-3
second-order rate constant (estimate of kcat/KM), caspase-3 (caspase-3 [14]; [17]): 160 M⁻¹ s⁻¹
processing efficiency by caspase-8 relative to caspase-2 (caspase-8 [15]): about seven
second-order rate constant (estimate of kcat/KM), caspase-8 (caspase-8 [15]; [17]): 22000 M⁻¹ s⁻¹
Bid cleavage by caspases-2 and -8 (in words) (caspase-2 [4]; initial results): could cleave Bid with similar efficiency
Bid cleavage by caspase-8 compared with caspase-2 (in words) (caspase-8 [16]): the processing by caspase-8 was more efficient
